Values of other authors, collected in patent publication US20240252511A1, “METHODS OF TREATING DEPRESSION AND ANXIETY” (Woolsey Pharmaceuticals, Inc., priority 2021, published 2024).

Details: in vivo; 1 hydroxy (M3) metabolite

- half-life: about 8 hours
SMILES: O=S(=O)(c1cccc2c(O)nccc12)N1CCCNCC1 [M3, hydroxyfasudil]
